Here are results for one molecule from patent US7034162B2, “Amorphous form of 3-[2-(dimethylamino) ethyl]-N-methyl-1H-indole-5-methane sulfonamide succinate (sumatriptan succinate)” (Dr. Reddy's Laboratories Limited, priority 2000, dated 2006).

The series is described as follows: thermal stability of the solid (stated property, no method described). The class given is physicochemical. As to conditions: solid amorphous form; test conditions not given.

`CNS(=O)(=O)Cc1ccc2[nH]cc(CCN(C)C)c2c1.O=C(O)CCC(=O)O` [amorphous form of Sumatriptan succinate, 3-[2-(dimethylamino)ethyl]-N-methyl-1H-indole-5-methane sulfonamide succinate]: the “thermal stability of the solid” value is recorded as “thermally stable”.
